The text below walks through data of patent US20110039793A1, “Application of ginsenoside Rb1 in preparing medicaments for treating dilated cardiomyopathy” (priority 2008, published 2011).

Experiment [1] concerns cTnT^R141W transgenic dilated cardiomyopathy mice model. The experiment is described as follows: Cardiac microstructure, HE and Masson staining, light microscope. The format is in vivo. The conditions noted are these: long-term administration, vs model group. As to the method: Effects on the cardiac microstructure of the mice model after a long-term administration of ginsenoside Rb1 (HE and Masson staining)
1) Fix the heart and treated in a standard pathological procedure.
3) Composite staining solution for 5 min;
4) Slightly washed by 0.2% acetic acid solution;
5) 5% phosphotungstic acid for 5-10 min;
6) Immersion cleaning twice by 0.2% acetic acid solution;
7) Brilliant green staining solution for 5 min, immersion cleaning twice by 0.2% acetic acid solution;
8) Ethanol dehydration, xylene transparent and sealed with neutral gum;
9) Observed under light microscope, collagen fibers show green, muscle fibers show red and red blood cells show nacarat.

Experiment [2] shares this test system. In words: Left ventricular ultrastructure, electron microscopy. The format is in vivo. The conditions noted are these: long-term administration. An excerpt: Effects on the left ventricular ultrastructure of the mice model with dilated cardiomyopathy after a long-term administration of ginsenoside Rb1 (electron microscopy)
Fresh myocardial tissues are fixed with 2.5% glutaraldehyde solution, then post-fixed by 1% osmic acid, embedded by Epon812 after the acetone gradient dehydration, wherein the embedded number is five Epon812 per case, ultra-thin sections are double stained by uranyl acetate and lead citrate, and observing by JEM1230 type projection electron microscope. The apparatuses are JEM1230 type projection electron microscope (Japanese Electronics Company), LEICA UCT type microtome (Germany Leica Company).

On to `CC(C)=CCC[C@](C)(O[C@@H]1O[C@H](CO[C@@H]2O[C@H](CO)[C@@H](O)[C@H](O)[C@H]2O)[C@@H](O)[C@H](O)[C@H]1O)[C@H]1CC[C@]2(C)[C@@H]1[C@H](O)C[C@@H]1[C@@]3(C)CC[C@H](O[C@@H]4O[C@H](CO)[C@@H](O)[C@H](O)[C@H]4O[C@@H]4O[C@H](CO)[C@@H](O)[C@H](O)[C@H]4O)C(C)(C)[C@@H]3CC[C@]12C` [Rb1, ginsenoside Rb1], for which the “proliferation of interstitial collagen” value in experiment [1] (Masson staining) is recorded as “significantly decreased”. Also, the “hypertrophy and disordered arrangement of the myocytes” value in experiment [1] (light microscope) is given as “improved”. Besides, in experiment [2], the intercalated disc structure result is “clear”, the mitochondrial structures result is reported as “most mitochondrial structures are normal”, the myocytes structure result was “clear structures” and the sarcoplasmic reticulum result was “slightly dilated”.
